Results: patent US9133168B2, “Pyrimidine derivatives, preparation thereof, and pharmaceutical use thereof as akt(pkb) phosphorylation inhibitors” (SANOFI, priority 2010, dated 2015)

test system: AKT protein phosphorylated on serine 473 (P-AKT-S473) in PC3 human prostate carcinoma cells; experiment: pAKT expression in PC3 human prostate carcinoma cells, MSD Multi-spot Biomarker detection (Test A); assay type: cell-based; settings: Homo sapiens, PC-3, PC3 cells, 1 to 2 h incubation, P-AKT-S473, absolute IC50, mean of two independent experiments
Summary of the method: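 Lysate pAKT-S473 measured by electrochemiluminescent sandwich immunoassay; inhibition versus cell-free background and DMSO-only wells, IC50 averaged over two experiments.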

SMILES	IC50
O=C(Cc1nc(N2CCOCC2)cc(=O)[nH]1)N1CCc2c1cccc2C(F)(F)F [Example 5d, 6-(morpholin-4-yl)-2-{2-oxo-2-[4-(trifluoromethyl)-2,3-dihydro-1H-indol-1-yl]ethyl}pyrimidin-4(3H)-one]	9 nM
C[C@@H]1Cc2ccccc2N1C(=O)Cc1nc(N2CCOCC2)cc(=S)n1C [Example 5e, 1-((R)-2-methyl-2,3-dihydroindol-1-yl)-2-(1-methyl-4-morpholin-4-yl-6-thioxo-1,6-dihydropyrimidin-2-yl)ethanone]	71 nM
COc1ccccc1-c1cccc2c1CCN2C(=O)Cc1nc(N2CCOCC2)cc(=O)[nH]1 [Example 6d, 2-{2-[4-(2-methoxyphenyl)-2,3-dihydro-1H-indol-1-yl]-2-oxoethyl}-6-(morpholin-4-yl)pyrimidin-4(3H)-one]	32 nM
Cn1c(CC(=O)N2CCc3c(F)cccc32)nc(N2CCOCC2)cc1=S [Example 6e, 1-(4-fluoro-2,3-dihydroindol-1-yl)-2-(1-methyl-4-morpholin-4-yl-6-thioxo-1,6-dihydropyrimidin-2-yl)ethanone]	31 nM
Cn1c(CC(=O)N2CC(C)(C)c3c(F)cccc32)nc(N2CCOCC2)cc1=O [Example 7c, 2-[2-(4-fluoro-3,3-dimethyl-2,3-dihydro-1H-indol-1-yl)-2-oxoethyl]-3-methyl-6-(morpholin-4-yl)pyrimidin-4(3H)-one]	45 nM
CCCN1CCCC(c2cccc3c2CCN3C(=O)Cc2nc(N3CCOCC3)cc(=O)[nH]2)C1 (centres unmarked) [Example 7d, 6-(morpholin-4-yl)-2-{2-oxo-2-[4-(1-propylpiperidin-3-yl)-2,3-dihydro-4H-indol-1-yl]ethyl}pyrimidin-4(3H)-one]	102 nM
Cn1c(CC(=O)N2CCc3c(Cl)cccc32)nc(N2CCOCC2)cc1=S [Example 7e, 1-(4-chloro-2,3-dihydroindol-1-yl)-2-(1-methyl-4-morpholin-4-yl-6-thioxo-1,6-dihydropyrimidin-2-yl)ethanone]	33 nM
C[C@H]1Cc2ccccc2N1C(=O)Cc1nc(N2CCOCC2)c(F)c(=O)n1C [Example 8a, 5-fluoro-3-methyl-2-{2-[(2S)-2-methyl-2,3-dihydro-1H-indol-1-yl]-2-oxoethyl}-6-(morpholin-4-yl)pyrimidin-4(3H)-one]	107 nM
CC1(C)CN(C(=O)Cc2nc(N3CCOCC3)cc(=O)[nH]2)c2cccc(F)c21 [Example 8c, 2-[2-(4-fluoro-3,3-dimethyl-2,3-dihydro-1H-indol-1-yl)-2-oxoethyl]-6-(morpholin-4-yl)pyrimidin-4(3H)-one]	52 nM
Cn1c(CC(=O)N2CCc3c(OC(F)F)cccc32)nc(N2CCOCC2)cc1=O [Example 8d, 2-{2-[4-(difluoromethoxy)-2,3-dihydro-1H-indol-1-yl]-2-oxoethyl}-3-methyl-6-(morpholin-4-yl)pyrimidin-4(3H)-one]	60 nM
CC1Cc2c(ccc(F)c2F)N1C(=O)Cc1nc(N2CCOCC2)c(F)c(=S)[nH]1 (stereo not drawn) [Example 8e, 1-((+)-4,5-Difluoro-2-methyl-2,3-dihydroindol-1-yl)-2-(5-fluoro-4-morpholin-4-yl-6-thioxo-1,6-dihydropyrimidin-2-yl)ethanone]	11 nM
C[C@@H]1Cc2ccccc2N1C(=O)Cc1nc(N2CCOCC2)c(F)c(=O)n1C [Example 9a, 5-fluoro-3-methyl-2-{2-[(2R)-2-methyl-2,3-dihydro-1H-indol-1-yl]-2-oxoethyl}-6-(morpholin-4-yl)pyrimidin-4(3H)-one]	120 nM
O=C(Cc1nc(N2CCOCC2)cc(=O)[nH]1)N1CCc2c(OC(F)F)cccc21 [Example 9d, 2-{2-[4-(difluoromethoxy)-2,3-dihydro-1H-indol-1-yl]-2-oxoethyl}-6-(morpholin-4-yl)pyrimidin-4(3H)-one]	44 nM
CC1Cc2c(ccc(F)c2F)N1C(=S)Cc1nc(N2CCOCC2)c(F)c(=S)[nH]1 (stereo not drawn) [Example 9e, 2-[2-((+)-4,5-Difluoro-2-methyl-2,3-dihydroindol-1-yl)-2-thioxoethyl]-5-fluoro-6-morpholin-4-yl-3H-pyrimidine-4-thione]	1 nM
O=C(Cc1nc(N2CCOCC2)cc(=O)[nH]1)N1CCc2c(-c3ccncc3)cccc21 [Example 10d, 6-(morpholin-4-yl)-2-{2-oxo-2-[4-(pyridin-4-yl)-2,3-dihydro-1H-indol-1-yl]ethyl}pyrimidin-4(3H)-one]	94 nM
C[C@H]1Cc2ccccc2N1C(=O)Cc1nc(N2CCOCC2)c(F)c(=S)[nH]1 [Example 10e, 2-(5-fluoro-4-morpholin-4-yl-6-thioxo-1,6-dihydropyrimidin-2-yl)-1-((S)-2-methyl-2,3-dihydroindol-1-yl)ethanone]	221 nM
O=C(Cc1nc(N2CCOC3CCCC32)cc(=O)[nH]1)N1CCc2c(F)cccc21 (centres unmarked) [Example 11b, 2-[2-(4-fluoro-2,3-dihydroindol-1-yl)-2-oxoethyl]-6-(hexahydrocyclopenta[1,4]oxazin-4-yl)-3H-pyrimidin-4-one]	12 nM
CN1CCC2(CC1)CN(C(=O)Cc1nc(N3CCOCC3)cc(=O)[nH]1)c1ccccc12 [Example 11d, 2-[2-(1′-methylspiro[indole-3,4′-piperidin]-1(2H)-yl)-2-oxoethyl]-6-(morpholin-4-yl)pyrimidin-4(3H)-one]	26 nM
C[C@@H]1Cc2ccccc2N1C(=O)Cc1nc(N2CCOCC2)c(F)c(=S)[nH]1 [Example 11e, 2-(5-fluoro-4-morpholin-4-yl-6-thioxo-1,6-dihydropyrimidin-2-yl)-1-((R)-2-methyl-2,3-dihydroindol-1-yl)ethanone]	61 nM
O=C(Cc1nc(-c2ccncc2)cc(=O)[nH]1)N1CCc2c(F)cccc21 [Example 12b, 2-[2-(4-fluoro-2,3-dihydroindol-1-yl)-2-oxoethyl]-6-pyridin-4-yl-3H-pyrimidin-4-one]	370 nM
O=C(Cc1nc(N2CCOCC2)cc(=O)[nH]1)N1CCc2c(-c3ccccn3)cccc21 [Example 12d, 6-(morpholin-4-yl)-2-{2-oxo-2-[4-(pyridin-2-yl)-2,3-dihydro-1H-indol-1-yl]ethyl}pyrimidin-4(3H)-one]	66 nM
COc1cc(-c2cc(=O)[nH]c(CC(=O)N3CCc4c(F)cccc43)n2)ccn1 [Example 13b, 2-[2-(4-fluoro-2,3-dihydroindol-1-yl)-2-oxoethyl]-6-(2-methoxypyridin-4-yl)-3H-pyrimidin-4-one]	3000 nM
O=C(Cc1nc(N2CCOCC2)cc(=O)[nH]1)N1CCc2c(-c3cccnc3)cccc21 [Example 13d, 6-(morpholin-4-yl)-2-{2-oxo-2-[4-(pyridin-3-yl)-2,3-dihydro-1H-indol-1-yl]ethyl}pyrimidin-4(3H)-one]	53 nM
CC1Cc2cc(F)ccc2N1C(=O)Cc1nc(N2CCOCC2)c(F)c(=O)n1C (stereo not drawn) [Example 14a, 5-fluoro-2-[2-((−)-5-fluoro-2-methyl-2,3-dihydroindol-1-yl)-2-oxoethyl]-3-methyl-6-morpholin-4-yl-3H-pyrimidin-4-one]	55 nM
O=C(Cc1nc(N2CCOCC2)cc(=O)[nH]1)N1CCc2c(-c3ccccc3Cl)cccc21 [Example 14d, 2-{2-[4-(2-chlorophenyl)-2,3-dihydro-1H-indol-1-yl]-2-oxoethyl}-6-(morpholin-4-yl)pyrimidin-4(3H)-one]	42 nM

same assay, conditions: PC3 cells, 1 to 2 h incubation, P-AKT-S473, absolute IC50, mean of two independent experiments

SMILES	IC50
CC1Cc2cc(F)ccc2N1C(=O)Cc1nc(N2CCOCC2)c(F)c(=O)[nH]1 (stereo not drawn) [Example 6a, 5-fluoro-2-[2-((+)-5-fluoro-2-methyl-2,3-dihydroindol-1-yl)-2-oxoethyl]-6-morpholin-4-yl-3H-pyrimidin-4-one]	10 nM
O=C(Cc1nc(N2CCOC(CF)C2)cc(=O)[nH]1)N1CCc2c(F)cccc21 (centres unmarked) [Example 6b, 2-[2-(4-fluoro-2,3-dihydroindol-1-yl)-2-oxoethyl]-6-(2-fluoromethylmorpholin-4-yl)-3H-pyrimidin-4-one]	58 nM
CC1Cc2c(O)cccc2N1C(=O)Cc1nc(N2CCOCC2)cc(=O)[nH]1 (centres unmarked) [Example 6c, 2-[2-(4-hydroxy-2-methyl-2,3-dihydro-1H-indol-1-yl)-2-oxoethyl]-6-(morpholin-4-yl)pyrimidin-4(3H)-one]	24 nM
CC1Cc2cc(F)ccc2N1C(=O)Cc1nc(N2CCOCC2)c(F)c(=O)[nH]1 (stereo not drawn) [Example 7a, 5-fluoro-2-[2-((−)-5-fluoro-2-methyl-2,3-dihydroindol-1-yl)-2-oxoethyl]-6-morpholin-4-yl-3H-pyrimidin-4-one]	3 nM
CC1CN(c2cc(=O)[nH]c(CC(=O)N3CCc4c(F)cccc43)n2)CCO1 (centres unmarked) [Example 8b, 2-[2-(4-fluoro-2,3-dihydroindol-1-yl)-2-oxoethyl]-6-(2-methylmorpholin-4-yl)-3H-pyrimidin-4-one]	18 nM
CC1Cc2c(F)cccc2N1C(=O)Cc1nc(N2CCOCC2)c(F)c(=O)[nH]1 (stereo not drawn) [Example 10a, 5-fluoro-2-[2-((+)-2-methyl-4-fluoro-2,3-dihydroindol-1-yl)-2-oxoethyl]-6-morpholin-4-yl-3H-pyrimidin-4-one]	116 nM
CC1Cc2c(F)cccc2N1C(=O)Cc1nc(N2CCOCC2)c(F)c(=O)[nH]1 (stereo not drawn) [Example 11a, 5-fluoro-2-[2-((−)-2-methyl-4-fluoro-2,3-dihydroindol-1-yl)-2-oxoethyl]-6-morpholin-4-yl-3H-pyrimidin-4-one]	24 nM
CC1Cc2cc(F)c(F)cc2N1C(=O)Cc1nc(N2CCOCC2)c(F)c(=O)[nH]1 (stereo not drawn) [Example 12a, 2-[2-((+)-5,6-difluoro-2-methyl-2,3-dihydroindol-1-yl)-2-oxoethyl]-5-fluoro-6-morpholin-4-yl-3H-pyrimidin-4-one]	16 nM
CC1Cc2cc(F)c(F)cc2N1C(=O)Cc1nc(N2CCOCC2)c(F)c(=O)[nH]1 (stereo not drawn) [Example 13a, 2-[2-((−)-5,6-difluoro-2-methyl-2,3-dihydroindol-1-yl)-2-oxoethyl]-5-fluoro-6-morpholin-4-yl-3H-pyrimidin-4-one]	162 nM
CC1Cc2cc(F)ccc2N1C(=O)Cc1nc(N2CCOCC2)c(F)c(=O)n1C (stereo not drawn) [Example 15a, 5-fluoro-2-[2-((+)-5-fluoro-2-methyl-2,3-dihydroindol-1-yl)-2-oxoethyl]-3-methyl-6-morpholin-4-yl-3H-pyrimidin-4-one]	65 nM
